Experiment: In vitro elution kinetics of dual active agent release from coated stents in PBS at 37° C.
Type: physicochemical
Experimental: The in vitro elution kinetics of dual release was carried out in PBS and at 37° C. The stent was crimped on a stent delivery system and then expanded. After expansion, the physical aspects of the stent were noted prior to placing the stent inside a vial containing 3 milliliters (ml) of PBS. The vial was placed in a shaker at 37° C. and at certain time intervals; the whole solution (3 ml) was removed and replaced with fresh PBS. The amount of each active agent in each dual release system was determined by UV-Vis spectrophotometer using wavelengths of 250 nanometers (nm) for mycophenolic acid and 359 nm for sulfasalazine and solving simultaneous equations of active agent mixtures.

Structure (SMILES)	release kinetics of the active agent in the inner layer (stent system of FIG. 1 with TECOPLAST middle barrier layer (FIG. 3) versus without barrier (FIG. 2), PBS, 37° C.)	release rate of sulfasalazine (from blends of TECOPLAST and TECOPHILIC polyurethanes as outer layer (FIG. 4))
COc1c(C)c2c(c(O)c1C/C=C(\C)CCC(=O)O)C(=O)OC2 [mycophenolic acid]	slowed down significantly	–
O=C(O)c1cc(/N=N/c2ccc(S(=O)(=O)Nc3ccccn3)cc2)ccc1O [sulfasalazine]	–	increased as the percentage of TECOPHILIC polyurethane in the blend increased

Source: US20050064005A1, “Active agent delivery systems including a miscible polymer blend, medical devices, and methods” (priority 2003, published 2005)
